Experimental data published in ChEMBL document CHEMBL1909046, “DrugMatrix in vitro pharmacology data”.

Legend:
[1] = target: Platelet-activating factor receptor (Homo sapiens, UniProt P25105); experiment: biochemical; assay type: tissue-based; conditions: platelet; note: in other assays of this panel Not Active means under 50% inhibition at 10 µM
Estrogen receptor beta = Estrogen receptor beta (Homo sapiens, UniProt Q92731); conditions: sf9; note: in other assays of this panel Not Active means under 50% inhibition at 10 µM
Estrogen receptor beta, sequence (Q92731 whole entry): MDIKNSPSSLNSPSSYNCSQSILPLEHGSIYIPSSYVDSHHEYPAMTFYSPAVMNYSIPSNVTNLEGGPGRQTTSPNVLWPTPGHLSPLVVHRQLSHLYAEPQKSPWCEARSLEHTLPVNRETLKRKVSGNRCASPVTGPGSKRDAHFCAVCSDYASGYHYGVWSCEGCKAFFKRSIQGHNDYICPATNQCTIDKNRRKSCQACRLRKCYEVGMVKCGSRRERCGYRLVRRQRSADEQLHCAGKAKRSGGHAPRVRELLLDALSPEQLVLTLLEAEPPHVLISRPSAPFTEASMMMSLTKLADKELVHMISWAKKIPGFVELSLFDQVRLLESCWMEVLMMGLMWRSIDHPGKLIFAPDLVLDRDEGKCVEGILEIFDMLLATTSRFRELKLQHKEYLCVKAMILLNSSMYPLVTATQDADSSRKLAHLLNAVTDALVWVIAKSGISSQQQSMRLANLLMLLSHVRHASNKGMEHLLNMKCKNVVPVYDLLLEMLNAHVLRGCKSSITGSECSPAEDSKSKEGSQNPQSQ

D(3) dopamine receptor = D(3) dopamine receptor (Homo sapiens, UniProt P35462); experiment: DRUGMATRIX: Dopamine D3 radioligand binding (ligand: [3H] Spiperone); assay type: cell membranes, CHO, Membrane; conditions: cho
D(3) dopamine receptor, sequence (P35462 whole entry): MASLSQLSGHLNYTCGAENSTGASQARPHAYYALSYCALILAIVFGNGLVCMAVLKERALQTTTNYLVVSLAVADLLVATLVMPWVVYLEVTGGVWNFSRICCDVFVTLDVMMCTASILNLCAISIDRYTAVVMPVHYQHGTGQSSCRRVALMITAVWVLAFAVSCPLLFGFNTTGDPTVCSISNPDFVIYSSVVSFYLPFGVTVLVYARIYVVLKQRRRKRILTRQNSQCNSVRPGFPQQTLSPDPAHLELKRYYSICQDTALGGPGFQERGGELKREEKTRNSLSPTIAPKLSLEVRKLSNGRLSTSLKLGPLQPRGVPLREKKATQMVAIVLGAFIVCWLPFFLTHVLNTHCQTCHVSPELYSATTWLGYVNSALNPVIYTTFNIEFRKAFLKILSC

[2] = target: T1, C-X-C chemokine receptor type 2 (Homo sapiens, UniProt P25025); assay type: cell membranes, Membrane; conditions: cho-k1; note: in other assays of this panel Not Active means under 50% inhibition at 10 µM
T1 sequence (P25025 whole entry): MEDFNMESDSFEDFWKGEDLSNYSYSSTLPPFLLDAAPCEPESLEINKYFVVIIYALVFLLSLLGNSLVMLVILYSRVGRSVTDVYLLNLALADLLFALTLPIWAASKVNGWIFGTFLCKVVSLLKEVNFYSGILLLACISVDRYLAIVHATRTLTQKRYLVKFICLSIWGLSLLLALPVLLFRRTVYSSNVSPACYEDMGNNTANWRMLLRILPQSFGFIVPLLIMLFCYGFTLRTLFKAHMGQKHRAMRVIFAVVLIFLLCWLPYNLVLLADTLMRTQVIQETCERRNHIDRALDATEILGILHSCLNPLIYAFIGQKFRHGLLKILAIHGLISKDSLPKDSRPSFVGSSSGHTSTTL

[3] = target: Mitogen-activated protein kinase 14 (Homo sapiens, UniProt Q16539); set-up: species or system Escherichia coli;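 note: inhibition of p38alpha enzyme activity in a biochemical kinase assay, with myelin basic protein serving as substrate; in other assays of this panel Not Active means under 50% inhibition at 10 µM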
Mitogen-activated protein kinase 14, sequence (Q16539 whole entry): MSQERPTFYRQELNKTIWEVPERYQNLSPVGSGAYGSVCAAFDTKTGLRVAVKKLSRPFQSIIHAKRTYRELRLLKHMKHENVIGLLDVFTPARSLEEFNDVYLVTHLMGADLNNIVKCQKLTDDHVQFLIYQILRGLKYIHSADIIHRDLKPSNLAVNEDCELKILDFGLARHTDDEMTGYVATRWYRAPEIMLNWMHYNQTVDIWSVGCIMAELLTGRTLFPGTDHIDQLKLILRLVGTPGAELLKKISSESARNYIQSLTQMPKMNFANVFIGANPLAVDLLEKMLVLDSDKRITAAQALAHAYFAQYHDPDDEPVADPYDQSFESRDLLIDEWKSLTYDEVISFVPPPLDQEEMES

Melanocortin receptor 3 = Melanocortin receptor 3 (Homo sapiens, UniProt P41968); assay type: cell membranes, Membrane; conditions: hek293; note: in other assays of this panel Not Active means under 50% inhibition at 10 µM
Melanocortin receptor 3, sequence (P41968 whole entry): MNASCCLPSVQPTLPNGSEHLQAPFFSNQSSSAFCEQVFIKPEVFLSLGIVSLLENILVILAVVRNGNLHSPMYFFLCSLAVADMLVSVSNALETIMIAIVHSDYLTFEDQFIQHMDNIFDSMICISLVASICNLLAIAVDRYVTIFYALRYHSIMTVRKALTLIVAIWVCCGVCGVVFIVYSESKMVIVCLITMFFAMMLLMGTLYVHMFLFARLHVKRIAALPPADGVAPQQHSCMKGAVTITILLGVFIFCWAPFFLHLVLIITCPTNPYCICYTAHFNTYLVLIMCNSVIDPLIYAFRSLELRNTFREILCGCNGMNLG

Cytochrome P450 1A2 = target: T2, Cytochrome P450 1A2 (Homo sapiens, UniProt P05177); conditions: bti-tn-5b1-4; note: in other assays of this panel Not Active means under 50% inhibition at 10 µM
T2 sequence (P05177 whole entry): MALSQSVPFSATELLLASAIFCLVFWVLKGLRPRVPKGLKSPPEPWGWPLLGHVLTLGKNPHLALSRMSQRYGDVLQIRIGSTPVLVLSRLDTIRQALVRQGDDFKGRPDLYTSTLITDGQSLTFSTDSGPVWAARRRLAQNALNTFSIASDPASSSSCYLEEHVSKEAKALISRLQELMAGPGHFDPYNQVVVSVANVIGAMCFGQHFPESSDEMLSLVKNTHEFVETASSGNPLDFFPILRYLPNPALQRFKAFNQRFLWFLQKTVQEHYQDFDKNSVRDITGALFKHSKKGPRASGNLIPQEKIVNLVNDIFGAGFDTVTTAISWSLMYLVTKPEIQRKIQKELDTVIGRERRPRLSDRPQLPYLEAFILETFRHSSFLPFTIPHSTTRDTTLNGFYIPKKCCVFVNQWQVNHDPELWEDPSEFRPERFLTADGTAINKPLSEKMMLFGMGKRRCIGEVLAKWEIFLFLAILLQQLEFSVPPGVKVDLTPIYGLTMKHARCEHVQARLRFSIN

[4] = target: Voltage-gated inwardly rectifying potassium channel KCNH2 (Homo sapiens, UniProt Q12809); conditions: hek293; note: in other assays of this panel Not Active means under 50% inhibition at 10 µM
Cytochrome P450 2C19 = Cytochrome P450 2C19 (Homo sapiens, UniProt P33261); conditions: bti-tn-5b1-4; note: in other assays of this panel Not Active means under 50% inhibition at 10 µM
Cytochrome P450 2C9 = Cytochrome P450 2C9 (Homo sapiens, UniProt P11712); conditions: bti-tn-5b1-4; note: in other assays of this panel Not Active means under 50% inhibition at 10 µM
Cytochrome P450 2C9, sequence (P11712 whole entry): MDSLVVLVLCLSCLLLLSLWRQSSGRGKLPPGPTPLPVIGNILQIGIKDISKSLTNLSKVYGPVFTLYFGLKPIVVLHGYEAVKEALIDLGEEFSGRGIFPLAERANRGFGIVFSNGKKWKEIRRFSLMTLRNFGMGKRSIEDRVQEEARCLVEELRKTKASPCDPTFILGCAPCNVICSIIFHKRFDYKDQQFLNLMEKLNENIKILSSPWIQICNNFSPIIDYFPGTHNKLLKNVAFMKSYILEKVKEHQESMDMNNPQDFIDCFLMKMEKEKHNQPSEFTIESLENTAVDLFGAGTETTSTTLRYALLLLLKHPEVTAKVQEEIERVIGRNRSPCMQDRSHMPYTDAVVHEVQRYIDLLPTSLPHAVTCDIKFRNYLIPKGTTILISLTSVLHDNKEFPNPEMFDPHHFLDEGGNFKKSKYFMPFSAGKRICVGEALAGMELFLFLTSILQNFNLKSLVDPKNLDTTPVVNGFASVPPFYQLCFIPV

[5] = DRUGMATRIX: GABAA, Chloride Channel, TBOB radioligand binding (ligand: [3H] TBOB); assay type: cell membranes, Rattus norvegicus, Wistar, Cerebral cortex, Membrane; conditions: Not Active = under 50% inhibition at 10 µM
Cytochrome P450 2E1 = Cytochrome P450 2E1 (Homo sapiens, UniProt P05181); conditions: bti-tn-5b1-4; note: in other assays of this panel Not Active means under 50% inhibition at 10 µM
Cytochrome P450 2E1, sequence (P05181 whole entry): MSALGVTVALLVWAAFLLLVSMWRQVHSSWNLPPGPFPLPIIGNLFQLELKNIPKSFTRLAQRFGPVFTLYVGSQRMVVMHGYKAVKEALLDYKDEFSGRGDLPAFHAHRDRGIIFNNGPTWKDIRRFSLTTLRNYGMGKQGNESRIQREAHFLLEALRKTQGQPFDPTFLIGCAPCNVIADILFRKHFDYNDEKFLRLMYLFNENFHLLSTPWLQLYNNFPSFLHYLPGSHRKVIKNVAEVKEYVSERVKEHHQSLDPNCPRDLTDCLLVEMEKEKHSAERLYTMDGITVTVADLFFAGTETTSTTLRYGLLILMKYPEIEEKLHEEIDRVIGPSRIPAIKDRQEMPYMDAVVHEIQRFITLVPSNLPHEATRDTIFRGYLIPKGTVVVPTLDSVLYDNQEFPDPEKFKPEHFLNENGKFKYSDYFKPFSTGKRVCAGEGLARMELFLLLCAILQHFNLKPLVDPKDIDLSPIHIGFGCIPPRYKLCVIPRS

[6] = target: Sigma non-opioid intracellular receptor 1 (Homo sapiens, UniProt Q99720); experiment: DRUGMATRIX: Sigma1 radioligand binding (ligand: [3H] Haloperidol); assay type: cell membranes, Jurkat, Membrane; conditions: jurkat; Not Active = under 50% inhibition at 10 µM
Sigma non-opioid intracellular receptor 1, sequence (Q99720 whole entry): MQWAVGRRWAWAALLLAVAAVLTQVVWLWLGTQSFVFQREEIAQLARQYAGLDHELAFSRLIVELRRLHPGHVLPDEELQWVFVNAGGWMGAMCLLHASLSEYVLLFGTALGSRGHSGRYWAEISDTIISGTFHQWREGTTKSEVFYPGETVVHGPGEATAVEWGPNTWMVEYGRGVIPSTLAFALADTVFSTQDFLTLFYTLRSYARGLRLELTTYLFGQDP

Cytochrome P450 2D6 = Cytochrome P450 2D6 (Homo sapiens, UniProt P10635); conditions: bti-tn-5b1-4; note: in other assays of this panel Not Active means under 50% inhibition at 10 µM
Cytochrome P450 2D6, sequence (P10635 whole entry): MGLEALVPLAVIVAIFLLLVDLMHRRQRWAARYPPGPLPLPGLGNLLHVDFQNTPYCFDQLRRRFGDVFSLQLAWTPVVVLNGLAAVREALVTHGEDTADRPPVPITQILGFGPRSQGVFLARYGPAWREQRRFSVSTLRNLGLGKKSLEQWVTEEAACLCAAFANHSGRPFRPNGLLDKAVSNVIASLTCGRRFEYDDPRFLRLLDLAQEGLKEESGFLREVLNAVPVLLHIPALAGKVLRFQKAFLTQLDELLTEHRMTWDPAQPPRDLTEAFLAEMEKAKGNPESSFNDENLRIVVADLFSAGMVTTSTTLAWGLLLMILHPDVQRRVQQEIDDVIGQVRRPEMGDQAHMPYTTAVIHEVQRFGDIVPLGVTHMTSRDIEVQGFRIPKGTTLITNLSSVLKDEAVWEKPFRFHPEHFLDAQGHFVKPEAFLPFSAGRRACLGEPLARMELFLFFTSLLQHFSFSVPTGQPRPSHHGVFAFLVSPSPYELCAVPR

Calcitonin receptor = target: T3, Calcitonin receptor (Homo sapiens, UniProt P30988); assay type: cell membranes, Membrane; conditions: t47d; note: in other assays of this panel Not Active means under 50% inhibition at 10 µM
T3 sequence (P30988 whole entry): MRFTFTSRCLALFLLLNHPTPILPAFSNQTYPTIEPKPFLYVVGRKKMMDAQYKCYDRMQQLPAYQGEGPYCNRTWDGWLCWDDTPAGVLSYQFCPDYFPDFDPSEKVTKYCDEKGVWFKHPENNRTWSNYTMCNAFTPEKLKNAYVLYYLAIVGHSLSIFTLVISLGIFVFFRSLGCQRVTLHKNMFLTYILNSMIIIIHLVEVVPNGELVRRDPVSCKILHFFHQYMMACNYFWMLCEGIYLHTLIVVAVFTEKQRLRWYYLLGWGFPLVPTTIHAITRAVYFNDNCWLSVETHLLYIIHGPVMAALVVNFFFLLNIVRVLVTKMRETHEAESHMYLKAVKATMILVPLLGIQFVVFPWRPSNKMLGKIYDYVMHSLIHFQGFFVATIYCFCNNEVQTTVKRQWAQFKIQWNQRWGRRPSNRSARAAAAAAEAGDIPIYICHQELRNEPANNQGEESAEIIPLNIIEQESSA

[7] = target: Mitogen-activated protein kinase 1 (Homo sapiens, UniProt P28482); experiment: DRUGMATRIX: Protein Serine/Threonine Kinase, ERK2 enzyme inhibition (substrate: Myelin Basic Protein); set-up: species or system Escherichia coli; conditions: Not Active = under 50% inhibition at 10 µM
Mitogen-activated protein kinase 1, sequence (P28482 whole entry): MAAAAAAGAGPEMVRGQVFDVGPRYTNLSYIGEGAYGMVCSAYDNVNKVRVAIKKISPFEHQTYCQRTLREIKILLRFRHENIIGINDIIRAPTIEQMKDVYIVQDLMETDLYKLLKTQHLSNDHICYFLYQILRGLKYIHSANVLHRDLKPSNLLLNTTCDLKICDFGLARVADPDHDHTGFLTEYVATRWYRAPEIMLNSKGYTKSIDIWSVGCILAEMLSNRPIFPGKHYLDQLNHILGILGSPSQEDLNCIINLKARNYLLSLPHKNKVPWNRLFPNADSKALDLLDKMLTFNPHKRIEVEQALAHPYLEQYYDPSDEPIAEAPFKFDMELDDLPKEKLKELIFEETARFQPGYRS

[8] = target: Sodium-dependent noradrenaline transporter (Homo sapiens, UniProt P23975); experiment: DRUGMATRIX: Norepinephrine Transporter radioligand binding (ligand: [125I] RTI-55); assay type: cell membranes, MDCK, Membrane; conditions: mdck; Not Active = under 50% inhibition at 10 µM
Sodium-dependent noradrenaline transporter, sequence (P23975 whole entry): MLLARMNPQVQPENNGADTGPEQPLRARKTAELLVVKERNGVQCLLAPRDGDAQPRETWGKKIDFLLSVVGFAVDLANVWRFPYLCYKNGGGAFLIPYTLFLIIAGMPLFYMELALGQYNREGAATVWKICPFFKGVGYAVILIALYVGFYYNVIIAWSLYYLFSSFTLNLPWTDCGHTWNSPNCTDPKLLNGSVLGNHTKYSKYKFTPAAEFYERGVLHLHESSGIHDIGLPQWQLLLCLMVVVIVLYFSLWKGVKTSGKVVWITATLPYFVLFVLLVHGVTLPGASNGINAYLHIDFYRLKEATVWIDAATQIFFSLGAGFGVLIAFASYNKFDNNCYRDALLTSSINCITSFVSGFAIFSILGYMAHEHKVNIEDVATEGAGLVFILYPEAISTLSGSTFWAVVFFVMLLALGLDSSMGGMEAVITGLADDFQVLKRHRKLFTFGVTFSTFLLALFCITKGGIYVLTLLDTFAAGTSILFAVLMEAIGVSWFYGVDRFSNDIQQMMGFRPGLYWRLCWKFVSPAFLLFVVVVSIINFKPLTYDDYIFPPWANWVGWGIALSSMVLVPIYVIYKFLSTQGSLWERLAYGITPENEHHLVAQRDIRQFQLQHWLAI

Platelet-activating factor receptor, sequence (P25105 whole entry): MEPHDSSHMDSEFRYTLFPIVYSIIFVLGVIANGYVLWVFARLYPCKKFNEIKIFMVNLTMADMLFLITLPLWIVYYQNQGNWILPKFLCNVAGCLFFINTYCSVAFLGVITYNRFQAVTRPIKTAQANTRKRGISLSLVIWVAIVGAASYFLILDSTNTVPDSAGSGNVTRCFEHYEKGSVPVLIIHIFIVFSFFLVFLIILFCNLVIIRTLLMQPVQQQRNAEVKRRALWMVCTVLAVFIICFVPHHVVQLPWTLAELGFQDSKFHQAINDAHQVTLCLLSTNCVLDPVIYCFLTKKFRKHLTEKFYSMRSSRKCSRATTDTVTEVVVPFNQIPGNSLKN

O=[N+]([O-])c1cc([As](=O)(O)O)ccc1O [ROXARSONE]
Not Active: IC50 [1] | Ki [1] | IC50 (Estrogen receptor beta) | Ki (Estrogen receptor beta) | IC50 (D(3) dopamine receptor) | Ki (D(3) dopamine receptor) | IC50 [2] | Ki [2] | IC50 [3] | Ki [3] | IC50 (Melanocortin receptor 3) | Ki (Melanocortin receptor 3) | IC50 (Cytochrome P450 1A2) | Ki (Cytochrome P450 1A2) | IC50 [4] | Ki [4] | IC50 (Cytochrome P450 2C19) | Ki (Cytochrome P450 2C19) | IC50 (Cytochrome P450 2C9) | Ki (Cytochrome P450 2C9) | IC50 [5] | Ki [5] | IC50 (Cytochrome P450 2E1) | Ki (Cytochrome P450 2E1) | IC50 [6] | Ki [6] | IC50 (Cytochrome P450 2D6) | Ki (Cytochrome P450 2D6) | IC50 (Calcitonin receptor) | Ki (Calcitonin receptor) | IC50 [7] | Ki [7] | IC50 [8] | Ki [8]

NC(=O)c1ccccc1O [SALICYLAMIDE]
Not Active: IC50 [1] | IC50 (Estrogen receptor beta) | IC50 (D(3) dopamine receptor) | IC50 [2] | IC50 [3] | IC50 (Melanocortin receptor 3) | IC50 (Cytochrome P450 1A2) | Ki (Cytochrome P450 1A2) | IC50 [4] | Ki [4] | IC50 (Cytochrome P450 2C19) | Ki (Cytochrome P450 2C19) | IC50 (Cytochrome P450 2C9) | Ki (Cytochrome P450 2C9) | IC50 [5] | Ki [5] | IC50 (Cytochrome P450 2E1) | Ki (Cytochrome P450 2E1) | IC50 [6] | IC50 (Cytochrome P450 2D6) | Ki (Cytochrome P450 2D6) | IC50 (Calcitonin receptor) | IC50 [7] | IC50 [8]

Cc1ncc([N+](=O)[O-])n1CC(C)O (stereo not given) [SECNIDAZOLE]
Not Active: IC50 [1] | IC50 (Estrogen receptor beta) | IC50 (D(3) dopamine receptor) | IC50 [2] | IC50 [3] | IC50 (Melanocortin receptor 3) | IC50 (Cytochrome P450 1A2) | Ki (Cytochrome P450 1A2) | IC50 [4] | Ki [4] | IC50 (Cytochrome P450 2C19) | Ki (Cytochrome P450 2C19) | IC50 (Cytochrome P450 2C9) | Ki (Cytochrome P450 2C9) | IC50 [5] | Ki [5] | IC50 (Cytochrome P450 2E1) | Ki (Cytochrome P450 2E1) | IC50 [6] | IC50 (Cytochrome P450 2D6) | Ki (Cytochrome P450 2D6) | IC50 (Calcitonin receptor) | IC50 [7] | IC50 [8]

CN(N=O)C(=O)N[C@@H](C=O)[C@@H](O)[C@H](O)[C@H](O)CO [STREPTOZOCIN]
Not Active: IC50 [1] | IC50 (Estrogen receptor beta) | IC50 (D(3) dopamine receptor) | IC50 [2] | IC50 [3] | IC50 (Melanocortin receptor 3) | IC50 (Cytochrome P450 1A2) | Ki (Cytochrome P450 1A2) | IC50 [4] | Ki [4] | IC50 (Cytochrome P450 2C19) | Ki (Cytochrome P450 2C19) | IC50 (Cytochrome P450 2C9) | Ki (Cytochrome P450 2C9) | IC50 [5] | Ki [5] | IC50 (Cytochrome P450 2E1) | Ki (Cytochrome P450 2E1) | IC50 [6] | IC50 (Cytochrome P450 2D6) | Ki (Cytochrome P450 2D6) | IC50 (Calcitonin receptor) | IC50 [7] | IC50 [8]

C=CC[C@@H]1/C=C(\C)C[C@H](C)C[C@H](OC)[C@H]2O[C@@](O)(C(=O)C(=O)N3CCCC[C@H]3C(=O)O[C@H](/C(C)=C/[C@@H]3CC[C@@H](O)[C@H](OC)C3)[C@H](C)[C@@H](O)CC1=O)[C@H](C)C[C@@H]2OC [TACROLIMUS ANHYDROUS]
Not Active: IC50 [1] | IC50 (Estrogen receptor beta) | IC50 (D(3) dopamine receptor) | IC50 [2] | IC50 [3] | IC50 (Melanocortin receptor 3) | IC50 (Cytochrome P450 1A2) | Ki (Cytochrome P450 1A2) | IC50 [4] | Ki [4] | IC50 (Cytochrome P450 2C19) | Ki (Cytochrome P450 2C19) | IC50 (Cytochrome P450 2C9) | Ki (Cytochrome P450 2C9) | IC50 [5] | Ki [5] | IC50 (Cytochrome P450 2E1) | Ki (Cytochrome P450 2E1) | IC50 [6] | IC50 (Cytochrome P450 2D6) | Ki (Cytochrome P450 2D6) | IC50 (Calcitonin receptor) | IC50 [7] | IC50 [8]
